The term EC50 denotes the concentration giving half of the maximal effect. As usually defined, the solubility is how much of the substance goes into solution per volume. Read a low solubility as a poorly soluble substance.

One series concerns the target T1, Human GIPr (Homo sapiens, UniProt P48546).
T1 construct: expressed in transfected cells
T1 sequence (P48546 22-466): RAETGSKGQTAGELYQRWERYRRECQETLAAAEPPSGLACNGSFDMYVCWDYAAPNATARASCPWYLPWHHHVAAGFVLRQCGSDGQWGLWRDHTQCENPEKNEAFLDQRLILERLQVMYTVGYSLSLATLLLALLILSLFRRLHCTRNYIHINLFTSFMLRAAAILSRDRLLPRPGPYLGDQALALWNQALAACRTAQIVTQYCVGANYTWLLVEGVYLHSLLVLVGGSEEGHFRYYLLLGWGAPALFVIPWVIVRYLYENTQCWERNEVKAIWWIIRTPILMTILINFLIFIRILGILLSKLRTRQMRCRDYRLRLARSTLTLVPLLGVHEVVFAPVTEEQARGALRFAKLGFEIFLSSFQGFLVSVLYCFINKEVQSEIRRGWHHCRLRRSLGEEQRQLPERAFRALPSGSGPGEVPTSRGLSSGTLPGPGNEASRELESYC
Briefly: cAMP activity assay in assay medium (assay 1). Format: cell-based. The settings on record: assay medium. The text has this:
(§1) Biological Activity of Peptides in Cell-Based cAMP Activity Assay (Assay 1):
(§2) All sample dilutions were made in duplicate.

The next series deals with T2, Human GlucR (Homo sapiens, UniProt P47871).
T2 construct: expressed in transfected cells
T2 sequence (P47871 26-477): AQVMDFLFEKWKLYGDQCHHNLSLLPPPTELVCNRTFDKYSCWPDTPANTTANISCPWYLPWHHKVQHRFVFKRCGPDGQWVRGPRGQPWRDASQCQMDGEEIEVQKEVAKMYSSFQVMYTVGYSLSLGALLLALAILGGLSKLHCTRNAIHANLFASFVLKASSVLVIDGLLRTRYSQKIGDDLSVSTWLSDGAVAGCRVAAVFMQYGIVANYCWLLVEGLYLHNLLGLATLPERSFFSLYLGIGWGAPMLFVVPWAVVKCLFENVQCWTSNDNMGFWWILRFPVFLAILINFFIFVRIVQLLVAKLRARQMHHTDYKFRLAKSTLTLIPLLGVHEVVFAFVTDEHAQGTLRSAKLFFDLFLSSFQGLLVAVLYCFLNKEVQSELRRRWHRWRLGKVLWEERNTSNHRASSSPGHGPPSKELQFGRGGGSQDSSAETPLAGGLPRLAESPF
Briefly: cAMP activity assay in assay medium (assay 1). Format: cell-based. To be noted: assay medium.
Text: as §1, §2

The target in a further series is T3, Rat GLP1R (Rattus norvegicus, UniProt P32301).
T3 construct: expressed in transfected cells
T3 sequence (P32301 22-463): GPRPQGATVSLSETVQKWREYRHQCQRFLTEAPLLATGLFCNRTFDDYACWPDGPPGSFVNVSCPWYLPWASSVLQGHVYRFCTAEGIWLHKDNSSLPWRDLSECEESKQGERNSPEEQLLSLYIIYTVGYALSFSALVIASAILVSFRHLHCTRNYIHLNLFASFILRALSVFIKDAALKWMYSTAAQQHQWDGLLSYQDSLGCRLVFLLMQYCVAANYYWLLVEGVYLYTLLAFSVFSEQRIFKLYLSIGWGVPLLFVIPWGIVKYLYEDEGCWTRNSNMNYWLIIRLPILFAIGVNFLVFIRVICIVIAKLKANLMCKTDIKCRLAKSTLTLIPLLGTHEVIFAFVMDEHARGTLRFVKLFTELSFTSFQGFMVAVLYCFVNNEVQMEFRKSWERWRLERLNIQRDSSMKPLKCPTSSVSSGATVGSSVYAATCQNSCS
Put plainly: cAMP assay in 3.2% rat serum albumin (assay 2). The series is classed as cell-based. How it is done: Cryopreserved cell stocks were prepared in 1× cell freezing medium-DMSO serum free (Sigma Aldrich) at 2×10^7/vial and stored at −80° C. […] Peptides were serially diluted in DMSO and then diluted 100 fold into DMEM containing serum albumin at stated final concentration. […] Cells were added to the assay plates and incubated for 30 min at room temperature. Following incubation the assay was stopped and cAMP levels measured using the HTRF® dynamic d2 cAMP assay kit available from CisBio Bioassays, as per the manufacture's guidelines. Plates were read on Perkin Elmer ENVISION® fluorescence plate readers. Human and rat serum albumin were purchased from Sigma Aldrich and mouse serum albumin from Equitech Bio Ltd.
Data was transformed to % Delta F as described in manufacturer's guidelines and analysed by 4-parameter logistic fit to determine EC50 values. […] For instance. […] To compare the balance of activities at the GLP1R and GlucR between different peptides and across different conditions, these can be correlated using the calculation below, where the EC50's are related to those of the natural ligands.
On the technique in general: Changes in cAMP serve as a functional read-out for many G protein-coupled receptors.

Series [1] is described as follows: Stability testing of peptides in plasma. Format: in vitro ADME, mouse. How it is done: The stability in plasma of the peptideS […], […], […] and […] was determined as follows. […] The spiked plasma samples were gently mixed and allowed to equilibrate for about 5 minutes before start of experiment. The plasma samples were incubated for 48 hours in a GalaxyR CO2 incubator at 37° C. […] The samples were stored at -70° C. until analysis. Plasma samples were assayed as follows. […] After mixing and centrifugation, 100 μl the supernatant was transferred to a new plate and 1 μl was injected onto an analytical column. The analysis was performed using a μLC-system ([…]) coupled to a medium high resolution mass spectrometer (Perkin Elmer PenTOF) with positive electrospray ionisation. […] Flow: 0.1 ml/min using a slow reversed phase gradient. […] Cleavage products arise from the action of the protease DPP IV in plasma. Both the degradation of the peptides and formation of peptide products were reported in percentage of the initial peptide concentration. Peaks were integrated and % remaining peptide was calculated: […] Levels of deamidation and DPP IV cleavage were low for […] and […].

A short description of series [2]: Peptide solubility in isotonic formulations (A280). Format: physicochemical. How it is done:
Default Formulation (DF)=0.1 M Tris pH 7.5, 150 mM Mannitol. Final formulation pH=7.2 • 2. Back up formulation t (BF)=0.05M Tris, 50 mM Arginine/Proline. Final formulation pH=9.0 • 3. […] Final formulation pH=7.0

Another series relates to healthy volunteers. Briefly: Phase 1 single-ascending-dose study of G933 (PK, PD, immunogenicity, safety). Format: in vivo, human. To be noted: for Overall daily food intake compared with placebo: across breakfast, lunch and dinner; for Median glucose peak after breakfast: approximately 1 hour post breakfast, 3.5 hours post dose; for Median glucose peak after dinner: approximately 1 hour post dinner, […] post dose; for Median glucose peak after lunch: approximately 1 hour post lunch, 7 hours post dose. The text has this:
The subjects were screened for the following inclusion and exclusion criteria.
Inclusion Criteria: • Healthy volunteers, ages 18 through 45 years at the time of screening; • Body mass index ≥22 and ≤30 kg/m^2 and body weight ≥70 kg; and • Venous access suitable for multiple cannulations.
The period of exclusion to begin 30 days or 5 half-lives of investigational product after the final dose, or after the last visit, whichever is longest. Subjects consented and screened, but not randomized into this study or a previous study, are not excluded; or • Psychiatric illness such that subjects have been committed to an institution by way of official or judicial order
Eight subjects per cohort were planned.

Read-outs that look alike come from different tables or passages of the source. Numbered stars: 1 amine (or outer) side, 2 acyl side, 3 side chain; on linkers, the order of the positions; unused ones are H or OH. Side chains are listed from the residue outwards. Peptide text beside a SMILES is read from it. * marks the point of attachment. γGlu = O=C(O)[C@H](CCC(=O)[*:2])N[*:1]; Palmitoyl = CCCCCCCCCCCCCCCC(=O)*

With `CCCCCCCCCCCCCCCC(=O)N[C@@H](CCC(=O)NCCCC[C@H](NC(=O)[C@H](CCCCN)NC(=O)[C@H](CO)NC(=O)[C@H](Cc1ccc(O)cc1)NC(=O)[C@H](CC(=O)O)NC(=O)[C@H](CO)NC(=O)[C@@H](NC(=O)[C@H](Cc1ccccc1)NC(=O)[C@@H](NC(=O)CNC(=O)[C@H](CCC(N)=O)NC(=O)[C@H](CO)NC(=O)[C@@H](N)Cc1c[nH]cn1)[C@@H](C)O)[C@@H](C)O)C(=O)N[C@@H](CC(C)C)C(=O)N[C@@H](CC(=O)O)C(=O)N[C@@H](CO)C(=O)N[C@@H](CCC(=O)O)C(=O)N[C@@H](CCCNC(=N)N)C(=O)N[C@@H](C)C(=O)N[C@@H](CCCNC(=N)N)C(=O)N[C@@H](CC(=O)O)C(=O)N[C@@H](Cc1ccccc1)C(=O)N[C@H](C(=O)N[C@@H](C)C(=O)N[C@@H](Cc1c[nH]c2ccccc12)C(=O)N[C@@H](CC(C)C)C(=O)N[C@H](C(=O)N[C@@H](C)C(=O)NCC(=O)NCC(N)=O)C(C)C)C(C)C)C(=O)O` [Peptide G730] (H-HSQGTFTSDYSKK([γGlu-Palmitoyl])LDSERARDFVAWLVAGG-NH2; N-terminus assumed), the EC50 on Human GIPr (Table 2, C-terminal amide peptides, read-out: Human GIPr EC50) stood at 45 nM; on Human GIPr (Table 4, read-out: hGIPR EC50), 56.6 nM; on Human GlucR (Table 2, C-terminal amide peptides, read-out: Human GlucR EC50) it was 0.00623 nM; on Human GlucR (Table 4, read-out: hGlucR EC50), 0.015 nM; at Rat GLP1R, 0.081 nM. In series [1], the “% +1 DPP cleaved product” value is reported as 5%. Besides, the “% +1 prod” value in series [1] came to 15%. The “% DPP cleaved product” value in series [1] is on record as 14%. In addition, the remaining at 24 h, 2 μmol/L in series [1] (mouse plasma, 37° C., 24 h, read-out: % stable peptide) was found to be 65%. For the same molecule, the solubility in series [2] (Default Formulation (DF), isotonic, DF = 0.1 M Tris pH 7.5, 150 mM Mannitol) is no less than 5000 µg/mL. Besides, the “Formulation Concentration” value in series [2] (Formulation DF, by A280 nm) was 5 mg/mL. Also, the “10 mg/ml solubility (BF2)” value in series [2] (yes/no) is on record as “no”.

Consider “L-Histidyl-L-seryl-L-glutaminylglycyl-L-threonyl-L-phenylalanyl-L-threonyl-L-seryl-L-alpha-aspartyl-(N6-[N-(1-oxohexadecyl)-L-gamma-gutamyl])L-lysy-L-sery-L-alpha-glutamyl-L-tyrosyl-L-leucyl-L-alpha-aspartyl-L-seryl-L-alpha-glutamyl-L-arginyl-L-alanyl-L-arginyl-L-alpha-L-aspartyl-L-phenylalanyl-L-valyl-L-alanyl-L-tryptophyl-L-leucyl-L-alpha-glutamyl-L-alanylglycylglycine [Peptide G933]”, for which the “Overall daily food intake compared with placebo” value in the series on healthy volunteers (Dose (µg) 5) amounted to 100%; in the series on healthy volunteers (Dose (µg) 10) it was 100%; in the series on healthy volunteers (Dose (µg) 30), 96%; in the series on healthy volunteers (Dose (µg) 100), 82%; with healthy volunteers (Dose (µg) 150), 60%; with healthy volunteers (Dose (µg) 300), 23%. Moreover, the “Median glucose peak after breakfast” value is recorded as 6.2 mmol/L with healthy volunteers (Dose (µg) 5); 5.8 mmol/L with healthy volunteers (Dose (µg) 10); 5.4 mmol/L in the series with healthy volunteers (Dose (µg) 30); 5.5 mmol/L with healthy volunteers (Dose (µg) 100); 5.1 mmol/L with healthy volunteers (Dose (µg) 150); 4.7 mmol/L in the series with healthy volunteers (Dose (µg) 300). The “Median glucose peak after dinner” value in the series on healthy volunteers (Dose (µg) 5) was determined as 7.0 mmol/L; with healthy volunteers (Dose (µg) 10), 6.0 mmol/L; in the series with healthy volunteers (Dose (µg) 30) it was 5.2 mmol/L; with healthy volunteers (Dose (µg) 100), 5.2 mmol/L; in the series with healthy volunteers (Dose (µg) 150), 5.2 mmol/L; in the series with healthy volunteers (Dose (µg) 300), 4.9 mmol/L. The “Median glucose peak after lunch” value is 4.9 mmol/L in the series with healthy volunteers (Dose (µg) 5); 5.1 mmol/L in the series on healthy volunteers (Dose (µg) 10); 4.4 mmol/L in the series with healthy volunteers (Dose (µg) 30); 4.7 mmol/L in the series on healthy volunteers (Dose (µg) 100); 5.1 mmol/L in the series with healthy volunteers (Dose (µg) 150); 5.1 mmol/L in the series on healthy volunteers (Dose (µg) 300). The “overall daily food intake” value in the series with healthy volunteers (all single doses compared with placebo) is “reduction in overall daily food intake”. In addition, the plasma glucose levels entry in the series with healthy volunteers (all single doses, 2.5-14 hours post-dose) is on record as “glucose lowering effect”.

The record behind these values is US20200354426A1 (MEDIMMUNE LIMITED, priority 2016, published 2020).
